{"source": "patent US20250177357A1", "about": "“METHODS FOR TREATING HYPERTROPHIC CARDIOMYOPATHY” (priority 2021, published 2025)", "format_in_all_cases": "in vivo, human", "key": {"[1]": {"system": "patients with symptomatic obstructive HCM (oHCM)", "assay": "Phase 2 trial in oHCM, Cohorts 1 and 2: echocardiography, NYHA class, biomarkers", "details": "for Average ejection fraction: at 10 weeks", "from_the_text": "Cohort 3 included patients receiving disopyramide.\nSince patient characteristics vary substantially in this disease, individualized dose titration to a pharmacodynamics (PD) response (reduction of the LVOT-G to <30 mmHg with preservation of LVEF>50%) was employed to maximize efficacy and safety.\nBody weight was ≥45 kg at screening; 4. […] Adequate acoustic windows for echocardiography; 6. Had LVOT-G during screening as follows for Cohorts 1 and 2: (a) resting gradient≥50 mmHg; or (b) resting gradient≥30 mmHg and <50 mmHg with post-Valsalva LVOT-G≥50 mmHg; or as follows for Cohort 3: persistent resting LVOT obstruction (≥30 mmHg) and provoked LVOT obstruction (≥50 mmHg); 7. Left ventricular ejection fraction (LVEF)≥60% at screening; 8. […] Able to complete all screening procedures; and 13. Taking stable doses of disopyramide for >4 weeks prior to screening (Cohort 3 only).\nAortic stenosis or fixed subaortic obstruction; 2. […] Has been treated with septal reduction therapy (surgical myectomy or percutaneous alcohol septal ablation) or has plans for either treatment during the study period; 6. […] Hemoglobin<10.0 g/dL at screening; 18. […] Has received prior treatment with CK-3773274 or is currently receiving mavacamten; 21.\n(§1) Patients up-titrated to Dose 2 if either of the following conditions were met on echocardiography: (1) resting LVOT-G≥30 mmHg and the biplane LVEF≥50%; or (2) resting LVOT-G<30 mmHg, post-Valsalva LVOT-G≥50 mmHg, and the biplane LVEF≥50%. Otherwise, the patient remains on Dose 1. If LVEF is <50% at Week 2, the patient was down-titrated to placebo.\n(§2) Patients were escalated to the next higher dose if either of the following conditions were met on echocardiography: (1) resting LVOT-G≥30 mmHg and the biplane LVEF≥50%; or (2) resting LVOT-G<30 mmHg, post-Valsalva LVOT-G≥50 mmHg, and the biplane LVEF≥50%. Otherwise, the patient remained on the same dose. If LVEF was <50% at Week 4, the patient was returned to a prior dose level or to placebo if the patient was on Dose 1.\nEchocardiograms obtained every 2 weeks and 2 weeks after the last dose were analyzed for several key structural and physiologic metrics and N-terminal prohormone of brain natriuretic peptide (NT-proBNP).\nInitial results from the clinical study included data from two sequentially conducted cohorts, Cohort 1 (n=21) and Cohort 2 (n=20) which randomized treatment of patients 2:1 to CK-274 or placebo. […] Overall, treatment duration for each patient in the study was 10 weeks with an echocardiogram conducted 2 weeks after the last dose."}, "[2]": {"assay": "Phase 1 plasma pharmacokinetics, food-effect cohort", "details": "single 10 mg", "description": "Food-effect cohort. […] Participants were randomized in a 1:1 ratio to 1 of 2 sequences: fasted/fed or fed/fasted.\nPharmacokinetic analyses. For all study groups, blood samples for PK assessment were obtained pre-dose, up to 12 times daily on day 1, and then at regular intervals throughout the study. Blood samples were collected according to the following schedule: SAD Cohorts: Day 1: pre-dose and 0.25, 0.5, 1, 1.5, 2, 2.5, 3, 4, 6, 8, 12, 16, 24, 36, 48, 72, 96, and 216 h post dose. […] CYPD6-PM Cohort: Day 1: pre-dose and 0.25, 0.5, 1, 1.5, 2, 2.5, 3, 4, 6, 8, 12, 16, 24, 36, 48, 72, 96, 216, 312, and 552 h post dose. Food-Effect Cohort: Day 1: pre-dose and 0.25, 0.5, 1, 1.5, 2, 2.5, 3, 4, 6, 8, 12, 16, 24, 36, 48, 72, 96, 144, and 216 h post dose. Standard non-compartmental methods were used to calculate PK parameters using Phoenix® WinNonlin® Version 7.0; actual sample collection times were utilized."}, "[3]": {"system": "patients with symptomatic obstructive HCM (oHCM)", "assay": "Phase 2 trial in oHCM: safety", "from_the_text": "as §1, §2"}}, "data": [{"smiles": "CCc1nc(-c2ccc3c(c2)CC[C@H]3NC(=O)c2cnn(C)c2)no1", "note": "[aficamten, (R)—N-(5-(5-ethyl-1,2,4-oxadiazol-3-yl)-2,3-dihydro-1H-inden-1-yl)-1-methyl-1H-pyrazole-4-carboxamide]", "values": [{"measurement": "Patients with complete hemodynamic response / target goal (resting gradient <30 mmHg and post-Valsalva gradient <50 mmHg)", "setting": "[1]; Cohort 1 (5, 10, 15 mg), Week 10, 11 out of 14", "result": 79, "unit": "%"}, {"measurement": "Average ejection fraction", "setting": "[1]; Cohort 1 (n=14), baseline 72.8 (73±6)", "result": "67±9", "unit": "%"}, {"measurement": "Patients with complete hemodynamic response / target goal (resting gradient <30 mmHg and post-Valsalva gradient <50 mmHg)", "setting": "[1]; Cohort 2 (10, 20, 30 mg), Week 10, 13 out of 14", "result": 93, "unit": "%"}, {"measurement": "Average ejection fraction", "setting": "[1]; Cohort 2 (n=14), baseline 75.4 (75±6)", "result": "64±8", "unit": "%"}, {"measurement": "Patients converted from NYHA class III to class II or I", "setting": "[1]; Cohorts 1 and 2", "result": 7, "unit": "patients"}, {"measurement": "Time of occurrence of reductions in LVOT-G after initiating treatment", "setting": "[1]; Cohorts 1 and 2", "result": "within two weeks"}, {"measurement": "Time of peak reduction in LVOT-G", "setting": "[1]; Cohorts 1 and 2", "result": "within two to six weeks of the end of dose titration"}, {"measurement": "Patients who improved from NYHA class III to I", "setting": "[1]; pooled aficamten Cohorts 1 and 2", "result": "one"}, {"measurement": "LVMI mean difference vs placebo", "setting": "[1]; week 10, p=0.063", "result": 8.1, "unit": "g/m^2"}, {"measurement": "CL/F, mean ± SD", "setting": "[2]; Fasted, n = 4", "result": "2.8 ± 0.6", "unit": "L/h"}, {"measurement": "CL/F, mean ± SD", "setting": "[2]; Fed, n = 7", "result": "3.1 ± 0.9", "unit": "L/h"}, {"measurement": "Increase in Cmax when taken with food", "setting": "[2]; fed vs fasted", "result": "approximately 30%"}, {"measurement": "Patients with LVEF <50%", "setting": "[3]; Cohort 1", "result": "No patients"}, {"measurement": "Patients with AEs related to study drug (per investigator)", "setting": "[3]; Cohort 1, 21 randomized", "result": "3 (14.3) N (%)"}, {"measurement": "Patients with TEAEs leading to drug interruption or termination", "setting": "[3]; Cohort 1, 21 randomized", "result": "0 N (%)"}, {"measurement": "Patients with TESAEs", "setting": "[3]; Cohort 1, 21 randomized", "result": "2 (9.5) N (%)"}, {"measurement": "Patients with at least one TEAE", "setting": "[3]; Cohort 1, 21 randomized", "result": "17 (81) N (%)"}, {"measurement": "Patients with fatal TEAEs", "setting": "[3]; Cohort 1, 21 randomized", "result": "0 N (%)"}, {"measurement": "TEAE of LVEF <50% (Core Lab)", "setting": "[3]; Cohort 1, 21 randomized", "result": "0 N (%)"}, {"measurement": "Patients with AEs related to study drug (per investigator)", "setting": "[3]; Cohort 2, 20 randomized", "result": "1 (5.0) N (%)"}, {"measurement": "Patients with TEAEs leading to drug interruption or termination", "setting": "[3]; Cohort 2, 20 randomized", "result": "0 N (%)"}, {"measurement": "Patients with TESAEs", "setting": "[3]; Cohort 2, 20 randomized", "result": "0 N (%)"}, {"measurement": "Patients with at least one TEAE", "setting": "[3]; Cohort 2, 20 randomized", "result": "15 (75) N (%)"}, {"measurement": "Patients with fatal TEAEs", "setting": "[3]; Cohort 2, 20 randomized", "result": "0 N (%)"}, {"measurement": "TEAE of LVEF <50% (Core Lab)", "setting": "[3]; Cohort 2, 20 randomized", "result": "2 (10) N (%)"}, {"measurement": "Patients with transient LVEF reduction to <50% requiring down titration", "setting": "[3]; Cohort 2, on 20 mg, remaining above 40%", "result": "one patient"}, {"measurement": "Interruptions or discontinuations of treatment", "setting": "[3]; Cohorts 1 and 2", "result": "No interruptions or discontinuations"}, {"measurement": "Treatment-related serious adverse events", "setting": "[3]; Cohorts 1 and 2, 10 weeks, listed as CK-274", "result": "no treatment related serious adverse events"}, {"measurement": "Patients with AEs related to study drug (per investigator)", "setting": "[3]; Total, 54 patients", "result": "6 (11.1) N (%)"}, {"measurement": "Patients with TEAEs leading to drug interruption or termination", "setting": "[3]; Total, 54 patients", "result": "0 N (%)"}, {"measurement": "Patients with TESAEs", "setting": "[3]; Total, 54 patients", "result": "2 (3.7) N (%)"}, {"measurement": "Patients with at least one TEAE", "setting": "[3]; Total, 54 patients", "result": "41 (75.9) N (%)"}, {"measurement": "Patients with fatal TEAEs", "setting": "[3]; Total, 54 patients", "result": "0 N (%)"}, {"measurement": "TEAE of LVEF <50% (Core Lab)", "setting": "[3]; Total, 54 patients", "result": "2 (3.7) N (%)"}, {"measurement": "Time for LVEF to return towards baseline", "setting": "[3]; both cohorts", "result": "within two weeks after the end of treatment"}]}]}
